# Measurements taken from patent publication US7820624B2, “Peptide ligands” (ICH Productions Limited, priority 2003, dated 2010).
# “Also recorded” adds a separate entry of the source.
# How the values were obtained:
# [1] = system: human monocyte-derived immature dendritic cells; experiment: LID (lipid-peptide-DNA) transfection of immature dendritic cells, EGFP by FACS and 7AAD cell death; type: cell-based; conditions: for Transfection efficiency, % positive cells: day 4 cells; for Transfection efficiency (percentage cells positive for EGFP) relative to peptide 6: day 6 cells, LID vector
# Method: Lipopolyplex (LID) transfection complexes comprising lipid (L), peptide (in the form of a peptide derivative as described above) (I) and DNA (D) were prepared. The lipid component was Lipofectin or Lipofectamine 2000 (Invitrogen Ltd, Paisley, UK), the peptide component was a synthesized peptide A to F, 6 or 6J derivative, as described in Table 7 above, and the DNA was the plasmid pEGFP-N1 (Clontech, BD Biosciences, Palo Alto, Calif.)
# In the transfection complex, peptide component to DNA charge ratios (+/−) were used at 1.5:1, 3:1 and 7:1. The lipid
# component (Lipofectin or Lipofectamine 2000) was maintained at a constant proportion, by weight, relative to DNA of 0.75:1. Prior to making transfection complexes, in method A the lipid component was diluted to a concentration of 15 μg per ml, the peptide was prepared at 0.1 mg/ml and the DNA (plasmid pEGFP-N1, BD Biosciences, Cowley, UK, prepared using EndoFree plasmid kit, Qiagen Ltd, Crawley, UK) was at 10 μg per ml. All dilutions were performed with OptiMEM reduced serum tissue culture medium (Life Technologies Ltd, Paisley, UK). In method B prior to making transfection complexes the lipid component was diluted to a concentration of 30 μg per ml, the peptide was prepared at 0.1 mg/ml and the DNA (plasmid pEGFP-N1, BD Biosciences, Cowley, UK, prepared using EndoFree plasmid kit, Qiagen Ltd, Crawley, UK) was at […]. All dilutions were performed in serum-free RPMI.
# Transfection complexes were made by mixing the components in the order 1) lipid (50 μl) then 2) peptide (70 μl) and finally 3) DNA (50 μl), then diluting with OptiMEM or serum free RPMI, as appropriate, to a concentration relative to the DNA component of 2 μg DNA per […] (OptiMEM) or 500 μl (RPMI).
# Immature day 6 dendritic cells, obtained as described in Example 1(v) above, were plated into a 48 well plate at 5×10^4 cells per well in complete media and allowed to settle for 3 hours at 37° C. 300 μl or 500 μl (as appropriate) of the transfection complex obtained as described above was added to each well. The transfection complex was applied to cells within 5 minutes of preparation. Transfection incubations were performed at 37° C. for 4 hours, after which the medium was replaced with complete medium with cytokines for 24 hours. Cells were harvested by scraping, spun down and resuspended in 300 μl PBS for FACS analysis to determine the percentage of cells positive for the reporter gene EGFP (Enhanced Green Fluorescent Protein). Each transfection was performed in triplicate wells.
# For transfection of monocytes, peripheral blood monocytes were prepared using Lymphoprep centrifugation and CD14 bead selection as described in the method for preparation of monocyte derived dendritic cells in Example 1(v) above. These cells were then transfected as described as described for dendritic cells except that transfection of the monocytes (and also of day 3 or day 4 immature dendritic cells) was carried out in solution.
# [2] = system: HMEC-1 cells; experiment: LID transfection, luciferase reporter assay, HMEC-1; type: cell-based, human; conditions: LID with lipofectin
# Method: Transfection complexes comprising lipid, peptide and DNA were prepared. The lipid component was lipofectin (Invitrogen Ltd, Paisley, UK), the peptide component was a peptide A to F, 6 or 6J derivative, as described above, and the DNA was the plasmid pCILuc (Promega UK Ltd, Southampton). In the transfection complex, peptide to DNA charge ratios (+/−) were used at 3:1, 5:1 and 7:1. The lipid component was maintained at a constant proportion, by weight, relative to DNA of 0.75:1. Prior to making transfection complexes the lipid component was diluted to a concentration of 15 μg or 30 μg per ml, the peptide was prepared at 0.1 mg/ml and the DNA was at 40 μg per ml. All dilutions were performed with OptiMEM reduced serum tissue culture medium (Life Technologies). Transfection complexes were made by mixing of components in the order 1) lipid then 2) peptide and finally 3) DNA, then diluted with OptiMEM to a concentration relative to the DNA component of 0.25 μg DNA per […]
# For transfection of these types of cell i.e. HMEC, HAEo-, N2a and HepG2, 1×10^4 cells were seeded overnight in 96 well plate. 200 μl of the suspension of the transfection complex prepared according to (b) above was added to each well. The suspension was applied to cells within 5 minutes of preparation. […]
# [3] = system: human monocyte-derived immature dendritic cells; experiment: Whole cell flow cytometry (FACS) of phage clone binding; conditions: day 4 cells, several donors; versus phage clone with no insert
# Method: 5×10^4 Dendritic cells and 2×10^11 of an individual purified phage clone were each blocked at 4° C. for 30 mins in 1 ml MBSA (2% Marvel, 5% BSA in PBS), with mixing on a turntable. The dendritic cells were spun down at 2000 rpm, a gentle centrifugation to pellet cells without lysing them, for 5 min at 4° C., and the pellet resuspended in the blocked phage solution. The mixture was held on ice for 30 min to allow the phage to bind, before spinning down the cells, removing the supernatant and washing the cells with 1 ml 1% BSA, 0.05% Tween20-PBS. The cells were spun again, the supernatant removed, and the cells fixed in 1 ml 1% paraformaldehyde for 30 min on ice. […] The cells were incubated with the antibody on ice for 30 min before spinning down, washing twice in 0.05% Tween20, 1% BSA PBS, resuspending in […] and measuring the percentage cells positive for FITC by FACS analysis.
# Alternatively, 5×10^4 dendritic cells were mixed with 2×10^11 of individual phage clones as described for panning of the phage library. The mixture of phage and DC suspensions was kept on ice for 30 min before cells were centrifuged to remove the supernatant and washed with 1 ml 1% BSA, 0.05% Tween 20-PBS. The cells were again pelleted by centrifugation, then fixed for flow cytometry analysis by resuspending in 1 ml of 1% paraformaldehyde for 30 min on ice. […] The cells were incubated with the antibody on ice for 30 min then pelleted by centrifugation, washed twice in 0.05% Tween 20, 1% BSA PBS and resuspended in 200 μl PBS. The percentage of FITC-positive cells was determined by flow cytometry using a Epics XL flow cytometer (Beckman Coulter, High Wycombe, UK.).
# [4] = lipofectin, lipid:DNA 0.75:1, peptide:DNA 7:1 (FIG. 5a)
Substance,"Transfection efficiency, % positive cells [1, 4] [%]",Transfection efficiency (percentage cells positive for EGFP) relative to peptide 6 [1],Transfection efficiency (luciferase activity per mg protein) relative to peptide 6 [2],Percentage of cells positive for bound phage (FITC) by FACS [3],"Transfection efficiency, % positive cells ([1]; no lipid)"
APSNSTA (Synthetic peptide binding to dendritic cells),11,equal to those of peptide 6,one and a half times that of peptide 6,binding to a higher percentage of cells than a phage clone bearing no insert; also recorded: bind to dendritic cells in highest amounts; also recorded: binding to dendritic cells in highest amounts,
SHVKLNS (Synthetic peptide binding to dendritic cells),17,"approximately one and a half times that of the positive control, peptide 6",approximately equal to that seen with peptide 6,binding to a higher percentage of cells than a phage clone bearing no insert; also recorded: bind to dendritic cells in highest amounts; also recorded: binding to dendritic cells in highest amounts,less than 1%
